Experimental data from patent US20200268765A1, “METHOD OF TREATING MEDULLOBLASTOMA WITH AN EZH2 INHIBITOR” (Epizyme, Inc., priority 2015, published 2020).
Entries after “also recorded” stand apart in the source; their conditions may differ.

Assays:
[1] = system: G401 SNF5 mutant cell line; assay: CellTiter-Glo Luminescent Cell Viability Assay after 7 days pretreatment; assay type: cell-based; conditions: pretreated for 7 days, replated on day 0; FIGS. 4A-4D
Description: FIGS. 4A-4D are four graphs showing that G401 SNF5 mutant cell line is sensitive to Compound A in vitro. Wild type cell line SJCRH30 (FIG. 4A) and RD (FIG. 4C) and SNF5 mutant cell line G401 (FIG. 4B) and A204 (FIG. 4D) were pretreated for 7 days with indicated concentrations of Compound A and replated on day 0. Cell viability was determined by CellTiter-Glo® Luminescent Cell Viability Assay.

G401 xenografts = assay: G401 xenograft (malignant rhabdoid tumor model); assay type: in vivo, SCID mice
Description: Data represent the mean values±SEM (n=8). Compound administration was stopped on day 28. FIG. 5C: EZH2 target inhibition in G401 xenograft tumor tissue collected from a parallel cohort of mice on day 21. […] Horizontal lines represent group mean values. BLLQ=below lower limit of quantification. FIGS. 5D and 5E show Immunohistochemical staining of tumor histone methylation of tumor samples from the vehicle treated (FIG. 5D) and Compound A treated (FIG. 5E) (at 125 mg/kg) mice.
Data are presented as mean values±SEM (n=16 until day 21, n=8 from day 22 to 60). […] FIG. 15C: Tumor weights of 8 mice euthanized on day 21. ****p<0.0001, Fisher's exact test. FIG. 15D: Plasma was collected 5 min before and 3 h after dosing of Compound A on day 21, and compound levels were measured by LC-MS/MS. Animals were euthanized, and tumors were collected 3 h after dosing on day 21. Tumor homogenates were generated and subjected to LC-MS/MS analysis to determine Compound A concentrations. Note that tumor compound levels could not be determined from all animals especially in the higher dose groups because the xenografts were too small on day 21. Dots represent values for the individual animals; horizontal lines represent group mean values.
FIGS. 16A-16F are a series of graphs showing that Compound A eradicates SMARCB1-deleted MRT xenografts in SCID mice. […]

[2] = system: cellular H3K27Me3 levels in G401 and RD cells; assay: Cellular histone methylation (immunoblot of acid-extracted histones); assay type: cell-based
Description: FIGS. 10A-10F are a series of graphs showing effects of Compound A on cellular global histone methylation and cell viability.
FIG. 12A: Cell lysates were analyzed by immunoblot with antibodies specific to SMARCB1, EZH2 and Actin (loading control). […] Cells were incubated with Compound A for 4 days, and acid-extracted histones were analyzed by immunoblot.

[3] = system: SMARCB1-deleted MRT cells; assay: Cell cycle analysis (flow cytometry) and apoptosis (TUNEL assay); assay type: cell-based; conditions: 1 μM, up to 14 days, FIG. 13
Description: Cell cycle analysis (by flow cytometry) and determination of apoptosis (by TUNEL assay) in RD (FIG. 13A) or G401 cells (FIG. 13B) during incubation with either vehicle or 1 μM Compound A for up to 14 days. G1 arrest was observed as of day 7 and apoptosis was induced as of day 11. Data are represented as mean values±SEM (n=2). The DMSO control values shown are the average±SEM from each time point. Cells were split and re-plated on days 4, 7 and 11 at the original seeding density.

SMARCB1 regulated genes = assay: Gene expression by qPCR; assay type: cell-based; conditions: G401 and RD cells, 1 μM, 2, 4 and 7 days; FIGS. 14A-14L
Description: FIG. 14A: Basal expression of SMARCB1 regulated genes in G401 SMARCB1-deleted cells, relative to RD control cells (measured by qPCR, n=2). FIGS. 14B-14K: G401 and RD cells were incubated with either DMSO or 1 μM Compound A for 2, 4 and 7 days. Gene expression was determined by qPCR (n=2) and is expressed relative to the DMSO control of each time point. FIGS. 14B-14K correspond to genes GLI1, PTCh1, DOCK4, CD133, PTPRK, BIN1, CDKN1A, CDKN2A, EZH2, and MYC, respectively. FIG. 14L: G402 cells were incubated with either DMSO (left panel) or 1 μM Compound A (right panel) for 14 days. Cells were split and re-plated to the original seeding density on day 7.

medulloblastoma cells = assay: Medulloblastoma cell growth (total cells per milliliter over time); assay type: cell-based; conditions: for medulloblastoma cell growth (total cells per milliliter): as a function of time (days), FIGS. 26A-26C
Source text: The total cells per milliliter of culture were counted each day for 10 days.

Oral bioavailability = conditions: in vivo
[4] = system: primary medulloblastoma cells
Description: FIG. 28A is a schematic diagram depicting the process by which primary medulloblastoma cell growth is evaluated ex vivo.
A slice culture of medulloblastoma was freshly isolated from a subject.
A patient having medulloblastoma underwent surgery to remove a slice of tumor tissue for testing. The medulloblastoma slice was cultured ex vivo on tissue supporting inserts (FIG. 28A). […] Following the treatment period, the cells of the slice culture were treated with BrdU for 4 hours prior to disaggregation and sorting by flow cytometry.

ATRT = ATRT survival in vivo; conditions: versus vehicle; FIG. 29A
[5] = system: atypical teratoid rhabdoid tumors (ATRTs); assay: ATRT cell self-renewal; assay type: cell-based
Source text: FIG. 24A is a series of photographs showing control or EZH2 inhibitor-treated (DNZep-treated) atypical teratoid rhabdoid tumors (ATRTs) at 1, 3, 5, and 7 days post-treatment.
FIG. 24D is a series of photographs showing control or EZH2 inhibitor-treated (DNZep-treated) atypical teratoid rhabdoid tumors (ATRTs) at 3, 5, 8 and 10 days post-treatment.

BT-16 ATRT cell line = assay: Surviving fraction after 2Gy radiation, BT-16; assay type: cell-based; conditions: FIG. 25A
Source text: FIG. 25A is a pair of graphs showing a surviving fraction of untreated or DZNEP-treated ATRT cells (from a BT-16 ATRT cell line) exposed to 2Gy radiation. Inhibition of EZH2 radio-sensitizes ATRT.

UPN737 ATRT cell line = assay: Surviving fraction after 2Gy radiation, UPN737; assay type: cell-based; conditions: FIG. 25B
Source text: FIG. 25B is a pair of graphs showing a surviving fraction of untreated or DZNEP-treated ATRT cells (from a UPN737 ATRT cell line, “737”) exposed to 2Gy radiation. Inhibition of EZH2 radio-sensitizes ATRT.

[6] = system: SNF5 mutant cell lines A204, G401 and G402; assay: Response of SNF5 mutant versus wild type cell lines to EZH2 compound; assay type: cell-based; conditions: compared to wild type cell lines RD and SJCRH30; FIGS. 2A-2E
[7] = system: G401 SNF mutant cell line; assay: Soft agar growth of G401 versus RD cells; assay type: cell-based; conditions: after 7 days in soft agar, compared to wild type cells RD; FIGS. 3A-3D
Source text: FIGS. 3A-3D are a series of bar graphs showing that G401 SNF mutant cell line is responding to Compound D after 7 days in soft agar compared to wild type cells RD.

[8] = system: LNCAP prostate cancer cells; assay: LNCAP cell growth inhibition in vitro; assay type: cell-based; conditions: FIG. 7A
[9] = system: ATRX mutant SCLC lines NCI-H446, SW1271 and NCI-H841; assay: Response of ATRX mutant SCLC lines; assay type: cell-based; conditions: FIGS. 8A-8C
Source text: FIGS. 8A-8C are three graphs establishing that ATRX mutant SCLC lines NCI-H446 (FIG. 8A), SW1271 (FIG. 8B) and NCI-H841 (FIG. 8C) are responding to Compound D.

SCLC line NCI-H841 = assay: Microscopy of cell morphology; assay type: cell-based; conditions: 4.1E-02 uM or 3.3 uM; FIGS. 9A-9C
[10] = 500 nM or 2 μM, 4 days, compared to untreated control

Q: Which “cell viability (sensitivity in vitro)” value [1] does the source give for `CCN(c1cc(-c2ccc(CN3CCOCC3)cc2)cc(C(=O)NCc2c(C)cc(C)[nH]c2=O)c1C)C1CCOCC1` [tazemetostat] here?
A: The value was “sensitive”.

Q: And the tumor regression (G401 xenografts; administration stopped on day 28, FIGS. 5A-5B)?
A: The tumor regression was “durable regressions”.

Q: And the tumor regression (G401 xenografts; twice daily (BID) for 21 days, FIG. 15B)?
A: Its tumor regression is “Tumor regressions induced”.

Q: What about the “inhibition of cellular H3K27 methylation (specificity)” value ([2]; 4 days incubation, immunoblot, FIG. 12B) of the same compound?
A: Its value is “Selective inhibition of cellular H3K27 methylation”.

Q: And the “inhibition of cellular H3K27Me3 levels” value ([2]; FIG. 10B)?
A: Its value is “Concentration-dependent inhibition”.

Q: What about the “day as of which apoptosis was induced” value ([3]; TUNEL) of the same compound?
A: Its value is 11 days.

Q: What about the “day as of which G1 arrest was observed” value [3] of the same compound?
A: The value was 7 days.

Q: And the “expression of SMARCB1 regulated genes” value (SMARCB1 regulated genes)?
A: Its value is “induces changes in expression”.

Q: And the “medulloblastoma cell growth versus negative control (DMSO)” value (medulloblastoma cells; 0.5 μM, 2 μM and 6 μM, counted each day for 10 days, FIG. 26C)?
A: Its value is “significant decrease”.

Q: What about the “effect on medulloblastoma cell growth compared with the other small molecule inhibitors tested” value (medulloblastoma cells; GSK-126, UNC 1999 and tazemetostat, FIG. 26D) of the same compound?
A: Its value is “superior ability to decrease medulloblastoma cell growth; also recorded: greatest effect”.

Q: And the “medulloblastoma cell growth (total cells per milliliter)” value (medulloblastoma cells)?
A: The value was “decrease medulloblastoma cell growth”.

Q: And the oral bioavailability (Oral bioavailability)?
A: The oral bioavailability was “orally bioavailable”.

Q: And the “proportion of cells in the G0/G1 stage” value [4, 10]?
A: Its value is “increased proportion”.

Q: What about the “proportion of cells in the G2/M stage” value [4, 10] of the same compound?
A: Its value is “decreased proportion”.

Q: And the “primary medulloblastoma cell growth ex vivo (cell cycle stages)” value ([4]; slice culture treated 4 days, FIG. 28B)?
A: The value was “decreases primary medulloblastoma cell growth ex vivo”.

Q: And the “primary medulloblastoma cell growth ex vivo (BrdU)” value ([4]; slice culture treated 4 days, FIG. 28C)?
A: Its value is “decreases primary medulloblastoma cell growth ex vivo”.

Q: What about the “percent survival / ATRT in vivo” value (ATRT) of the same compound?
A: The value was “decreases ATRT in vivo”.

Q: Which “medulloblastoma cell growth (total cells per milliliter)” value (medulloblastoma cells) does the source give for `CC[C@H](C)n1cc(C)c2c(C(=O)NCc3c(C)cc(C)[nH]c3=O)cc(-c3ccc(N4CCNCC4)nc3)cc21` [GSK-126, reference compound] here?
A: Its value is “decrease medulloblastoma cell growth”.

Q: Which “medulloblastoma cell growth (total cells per milliliter)” value (medulloblastoma cells) does the source give for `CCCc1cc(C)[nH]c(=O)c1CNC(=O)c1cc(-c2ccc(N3CCN(C(C)C)CC3)nc2)cc2c1cnn2C(C)C` [UNC 1999, reference compound] here?
A: The value was “decrease medulloblastoma cell growth”.

Q: Which ATRT cell self-renewal ([5]; 1, 3, 5, and 7 days post-treatment, FIG. 24A) does the source give for `Nc1nccc2c1ncn2C1C=C(CO)C(O)C1O` (stereo not shown) [DNZep] here?
A: Its ATRT cell self-renewal is “suppresses ATRT cell self-renewal”.

Q: And the ATRT cell self-renewal ([5]; 3, 5, 8 and 10 days post-treatment, FIG. 24D)?
A: The ATRT cell self-renewal was “suppresses ATRT cell self-renewal”.

Q: What about the “radio-sensitization (surviving fraction)” value (BT-16 ATRT cell line) of the same compound?
A: Its value is “radio-sensitizes”.

Q: What about the “radio-sensitization (surviving fraction)” value (UPN737 ATRT cell line) of the same compound?
A: Its value is “radio-sensitizes”.

Q: With `CCN(c1cc(-c2ccc(CN3CCOCC3)cc2)cc(C(=O)NCc2c(C)cc(C)[nH]c2=O)c1C)[C@H]1CC[C@H](N(C)C)CC1` [Compound D] as the compound, how does the “response of cell lines to EZH2 compound” value [6] read?
A: The value was “selectively respond”.

Q: And the “response in soft agar” value [7]?
A: Its value is “responding”.

Q: And the cell growth inhibition [8]?
A: The cell growth inhibition was “dose-dependent cell growth inhibition”.

Q: What about the “response of cell lines” value [9] of the same compound?
A: The value was “responding”.

Q: What about the cell morphology (SCLC line NCI-H841) of the same compound?
A: Its cell morphology is “changes morphology”.
